{
  "source": "patent US7723112B2",
  "about": "“Compositions and methods for treating and diagnosing cancer” (The Regents of the University of Michigan, priority 2005, dated 2010)",
  "system": "UM-C4 tumor cells",
  "conditions": "monitored four months",
  "source_text": "Mice were monitored for tumor growth over a period of four months and scored as either positive or negative for tumor growth such that Poisson statistics could be done to assess TG cell frequency among the input population.",
  "note": "Like-named read-outs stand apart in the source and are kept apart here.",
  "data": [
    {"smiles": "O=P1(N(CCCl)CCCl)NCCCO1", "note": "(stereo not shown) [CPA, Cyclophosphamide]", "values": [
      {"measurement": "mice developing tumors / mice injected", "setting": "input of 56 bulk tumor cells from CPA-treated tumors", "value": "4/8"},
      {"measurement": "mice developing tumors / mice injected", "setting": "input of 167 bulk tumor cells from CPA-treated tumors", "value": "5/8"},
      {"measurement": "mice developing tumors / mice injected", "setting": "input of 500 bulk tumor cells from CPA-treated tumors", "value": "9/9"},
      {"measurement": "mice developing tumors", "setting": "input of 1,500 bulk tumor cells from CPA-treated tumors", "value": "All eight"}
    ]}
  ]
}
